Results on 21 compounds are retold here after US9271971B2, “Pyrido[3,4-B]indoles and methods of use” (Medivation Technologies, Inc., priority 2009, dated 2016).

Assay [1] has as its target T1, human recombinant adrenergic α2B receptor (Homo sapiens, UniProt P18089).
T1 construct: expressed in transfected cells; host or cells: Chinese hamster ovary (CHO-K1) cells
T1 sequence (P18089 1-450): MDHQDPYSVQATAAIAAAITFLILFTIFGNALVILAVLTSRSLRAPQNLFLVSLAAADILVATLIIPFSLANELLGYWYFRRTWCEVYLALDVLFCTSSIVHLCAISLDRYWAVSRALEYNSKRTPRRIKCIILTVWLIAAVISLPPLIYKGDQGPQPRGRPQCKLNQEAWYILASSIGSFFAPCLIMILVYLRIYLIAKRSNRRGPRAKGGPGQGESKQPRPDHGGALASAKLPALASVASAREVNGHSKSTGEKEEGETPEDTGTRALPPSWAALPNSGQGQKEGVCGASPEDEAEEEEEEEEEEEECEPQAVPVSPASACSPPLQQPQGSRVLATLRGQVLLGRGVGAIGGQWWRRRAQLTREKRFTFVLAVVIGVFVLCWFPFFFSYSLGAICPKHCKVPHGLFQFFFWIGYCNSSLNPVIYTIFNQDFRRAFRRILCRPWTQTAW
Put plainly: Adrenergic α2B radioligand binding assay. The settings on record: [3H]Rauwolscine specific binding; for inhibition at 0.1 µM: read-out: Percent Inhibition of ligand binding, Adrenergic (0.1 μM ligand conc.) α2B; for inhibition at 1 µM: read-out: Percent Inhibition of ligand binding, Adrenergic (1 μM ligand conc.) α2B. How it is done:
To evaluate in radioligand binding assays the activity of compounds of the invention, human recombinant adrenergic α2B receptor expressed in Chinese hamster ovary (CHO-K1) cells [Uhlen, S et al., Eur J Pharmacol. (1998), 343(1):93] in a modified Tris-HCl buffer (50 mM Tris-HCl, pH 7.4, 12.5 mM MgCl2, 1 mM EDTA, 0.2% BSA) was used. Compounds of the invention were incubated with 2.5 nM [^3H]Rauwolscine for 60 min. at 25° C. Non-specific binding was estimated in the presence of 10 μM Prozosin. Receptor proteins were filtered and washed, the filters were then counted to determine [^3H]Rauwolscine specifically bound. Compounds were screened at 1 μM or lower, using 1% DMSO as vehicle. Compounds of the invention were tested in this biochemical assay. Biochemical assay results for representative compounds were presented as the percent inhibition of specific binding in Table 3.

For assay [2], the target named is human recombinant dopamine D2L receptor (Homo sapiens, UniProt P14416). The experiment in a line: Dopamine D2L radioligand binding assay. As to conditions: [3H]Spiperone specific binding; for inhibition at 1 µM: read-out: Percent Inhibition of ligand binding, Dopamine (1 μM ligand conc.) D2L. How it is done: To evaluate in radioligand binding assays the activity of compounds of the invention, human recombinant dopamine D2L receptor expressed in Chinese hamster ovary (CHO) cells [Grandy, D. K. et al. Proc. Natl. Acad. Sci. USA. (1989), 86:9762; Hayes, G. et al., Mol. Endocrinol. (1992), 6:920] in a modified Tris-HCl buffer (50 mM Tris-HCl, pH 7.4, 1.4 mM Ascorbic Acid, 0.001% BSA, 150 mM NaCl) was used. Compounds of the invention were incubated with 0.16 nM [^3H]Spiperone for 120 min. at 25° C. Non-specific binding was estimated in the presence of 10 μM Haloperidol. Receptor proteins were filtered and washed, the filters were then counted to determine [^3H]Spiperone specifically bound. Compounds were screened at 1 μM or lower, using 1% DMSO as vehicle. Biochemical assay results are presented as the percent inhibition of specific binding in Table 3.
Chain of human recombinant dopamine D2L receptor (P14416 whole entry): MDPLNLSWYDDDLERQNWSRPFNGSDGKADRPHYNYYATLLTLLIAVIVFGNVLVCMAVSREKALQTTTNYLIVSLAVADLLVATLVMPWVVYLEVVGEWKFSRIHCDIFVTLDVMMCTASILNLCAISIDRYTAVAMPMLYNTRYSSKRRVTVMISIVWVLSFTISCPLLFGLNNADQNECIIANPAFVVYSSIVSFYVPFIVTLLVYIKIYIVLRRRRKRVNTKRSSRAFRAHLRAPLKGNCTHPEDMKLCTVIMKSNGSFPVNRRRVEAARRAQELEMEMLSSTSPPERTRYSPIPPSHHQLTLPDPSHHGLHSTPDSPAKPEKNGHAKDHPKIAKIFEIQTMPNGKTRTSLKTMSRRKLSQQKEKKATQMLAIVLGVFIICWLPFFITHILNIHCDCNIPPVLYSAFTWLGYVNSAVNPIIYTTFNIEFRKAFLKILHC

For assay [3], the target named is T2, human recombinant serotonin (5-Hydroxytryptamine) 5-HT2C receptor (Homo sapiens, UniProt P28335).
T2 construct: expressed in transfected cells; host or cells: Chinese hamster ovary (CHO-K1) cells
T2 sequence (P28335 33-458): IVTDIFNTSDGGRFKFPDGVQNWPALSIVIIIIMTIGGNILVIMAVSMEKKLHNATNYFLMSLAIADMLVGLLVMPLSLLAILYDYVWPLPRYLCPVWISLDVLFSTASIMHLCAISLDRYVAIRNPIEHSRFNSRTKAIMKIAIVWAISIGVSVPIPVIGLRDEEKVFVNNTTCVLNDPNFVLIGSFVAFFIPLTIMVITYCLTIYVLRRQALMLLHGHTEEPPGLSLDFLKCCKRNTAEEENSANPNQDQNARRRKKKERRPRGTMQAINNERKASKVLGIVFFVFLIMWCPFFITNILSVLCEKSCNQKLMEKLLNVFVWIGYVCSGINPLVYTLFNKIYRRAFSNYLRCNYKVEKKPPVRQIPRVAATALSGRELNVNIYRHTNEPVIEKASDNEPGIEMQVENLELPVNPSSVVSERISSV
The experiment in a line: Serotonin 5-HT2C radioligand binding assay. As to conditions: [3H]Mesulergine specific binding; for inhibition at 1 µM: read-out: Percent Inhibition of ligand binding, Serotonin (1 μM ligand concentration) 5-HT2C. How it is done:
To evaluate in radioligand binding assays the activity of compounds of the invention, human recombinant serotonin (5-Hydroxytryptamine) 5-HT2C receptor expressed in Chinese hamster ovary (CHO-K1) cells [Wolf, W. A. et al., J. Neurochem. (1997), 69:1449] in a modified Tris-HCl buffer (50 mM Tris-HCl, pH 7.4, 0.1% Ascorbic Acid, 10 μM Pargyline) was used. Compounds of the invention were incubated with 1 nM [^3H]Mesulergine for 60 min. at 25° C. Non-specific binding was estimated in the presence of 1 μM Mianserin. Receptor proteins were filtered and washed, the filters were then counted to determine [^3H]Mesulergine specifically bound. Compounds were screened at 1 μM or lower, using 1% DMSO as vehicle. Biochemical assay results are presented as the percent inhibition of specific binding in Table 4.

Assay [4] deals with human recombinant histamine H1 receptor (Homo sapiens, UniProt P35367). The experiment in a line: Histamine H1 radioligand binding assay. As to conditions: [3H]Pyrilamine specific binding; for inhibition at 1 µM: read-out: Percentage Inhibition, Histamine Binding (1 μM) H1. How it is done:
To evaluate in radioligand binding assays the activity of compounds of the invention, human recombinant histamine H1 receptor expressed in Chinese hamster ovary (CHO) cells [De Backer, M. D. et al., Biochem. Biophys. Res. Comm. (1993), 197(3):1601] in a modified Tris-HCl buffer (50 mM Tris-HCl, pH 7.4, 2 mM MgCl2, 100 mM NaCl, 250 mM Sucrose) was used. Compounds of the invention were incubated with 1.2 nM [^3H]Pyrilamine for 180 min. at 25° C. Non-specific binding was estimated in the presence of 1 μM pyrilamine. Receptor proteins were filtered and washed, the filters were then counted to determine [^3H]Pyrilamine specifically bound. Compounds were screened at 1 μM or lower, using 1% DMSO as vehicle. Biochemical assay results are presented as the percent inhibition of specific binding in Table 2.

Chain of human recombinant histamine H1 receptor (P35367 whole entry): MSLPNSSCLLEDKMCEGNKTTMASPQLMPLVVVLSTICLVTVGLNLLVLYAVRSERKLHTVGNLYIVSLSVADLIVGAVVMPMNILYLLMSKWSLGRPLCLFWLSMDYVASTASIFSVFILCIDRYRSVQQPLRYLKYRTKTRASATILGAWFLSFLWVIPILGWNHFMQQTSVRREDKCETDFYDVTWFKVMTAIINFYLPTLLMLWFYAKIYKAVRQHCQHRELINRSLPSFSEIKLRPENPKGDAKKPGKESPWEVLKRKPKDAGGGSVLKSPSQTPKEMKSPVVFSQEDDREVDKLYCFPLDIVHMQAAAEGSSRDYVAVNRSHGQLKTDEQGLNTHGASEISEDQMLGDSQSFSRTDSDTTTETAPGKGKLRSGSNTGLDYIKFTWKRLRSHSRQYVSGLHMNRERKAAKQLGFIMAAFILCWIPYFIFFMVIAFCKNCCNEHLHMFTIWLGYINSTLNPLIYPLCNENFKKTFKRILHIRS

In the case of `C/C(=C\n1c2c(c3cc(C)ccc31)C1CCN(C2)C1)c1ccncc1` (stereo not drawn) [Compound 44], in assay [1], the inhibition at 0.1 µM was determined as 9%. For the same compound, the inhibition at 1 µM in assay [2] was 9%; in assay [3], 58%; in assay [4] it was 23%.
With `Cc1ccc2c(c1)c1c(n2CCc2ccncc2)CN2CCC1C2` (stereo not drawn) [Compound 30], the inhibition at 1 µM amounted to 76% in assay [1] (1 μM), 10% in assay [2], 85% in assay [3] and 76% in assay [4].
In the case of `C/C(=C\n1c2c(c3cc(C)ccc31)C1CCN(C2)C1)c1ccc(Cl)cc1Cl` (stereo not drawn) [Compound 34], the “Percent Inhibition of ligand binding, Adrenergic (1 μM ligand conc.) α2B” value in assay [1] (1 μM) is 55%. Further, in assay [2], the “Percent Inhibition of ligand binding, Dopamine (1 μM ligand conc.) D2L” value (“Percent Inhibition … (1 μM ligand conc.) D2L” below) turned out to be 0%. The “Percent Inhibition of ligand binding, Serotonin (1 μM ligand concentration) 5-HT2C” value in assay [3] is reported as 99%. Also, the “Percentage Inhibition, Histamine Binding (1 μM) H1” value (“Percentage Inhibition” below) in assay [4] turned out to be 34%.
Regarding `Cc1ccc2c(c1)c1c(n2CCc2ccccn2)CN2CCC1C2` (stereo not drawn) [Compound 11], the inhibition at 1 µM is 48% in assay [1] (1 μM), -6% in assay [2], 17% in assay [3] and 77% in assay [4].
As for `COc1ccc(/C(C)=C/n2c3c(c4cc(C)ccc42)C2CCN(C3)C2)cc1F` (stereo not drawn) [Compound 41], the inhibition at 1 µM in assay [2] amounted to 17%; in assay [3], 97%; in assay [4], 21%.
As to `Cc1ccc2c(c1)c1c(n2C(=O)Cc2ccc(F)cc2)CN2CCC1C2` (stereo not drawn) [Compound 43], the inhibition at 1 µM in assay [2] was 11%; in assay [3], 66%; in assay [4], 16%.
Turning to `Cc1ccc2c(c1)c1c(n2C#Cc2ccc(Cl)cc2)CN2CCC1C2` (stereo not drawn) [Compound 35], the figures for the inhibition at 1 µM in assay [2], in assay [3] and in assay [4] were -6%, 94% and 0%, respectively.
Regarding `Cc1ccc2c(c1)c1c(n2CC(=O)N2CCC(C)CC2)CN2CCC1C2` (stereo not drawn) [Compound 25], the inhibition at 1 µM in assay [1] (1 μM) is -17%; in assay [2] it was 9%; in assay [3], 15%; in assay [4] it was 30%.
Consider `C/C(=C\n1c2c(c3cc(C)ccc31)C1CCN(C2)C1)c1ccccc1F` (stereo not drawn) [Compound 38], for which the inhibition at 0.1 µM in assay [1] came to 25%. Also, the inhibition at 1 µM is 1% in assay [2], 93% in assay [3] and 38% in assay [4].
Consider `C/C(=C\n1c2c(c3cc(C)ccc31)C1CCN(C2)C1)c1ccc(F)c(F)c1` (stereo not drawn) [Compound 39], for which the inhibition at 1 µM in assay [2] is 0%; in assay [3] it was 94%; in assay [4] it was 26%.
With `C/C(=C\n1c2c(c3cc(C)ccc31)C1CCN(C2)C1)c1ccc(Cl)cc1Cl` (stereo not drawn) [Compound 33], the inhibition at 0.1 µM in assay [1] stood at 9%. The inhibition at 1 µM in assay [1] (1 μM) worked out at 73%; in assay [3] it was 95%. Moreover, the “Percent Inhibition … (1 μM ligand conc.) D2L” value in assay [2] is −6%. For the same compound, the “Percentage Inhibition” value in assay [4] is 76%.
In the case of `Cc1ccc2c(c1)c1c(n2C(=O)Cc2ccc(Cl)cc2)CN2CCC1C2` (stereo not drawn) [Compound 36], the inhibition at 0.1 µM in assay [1] turned out to be 13%. Moreover, the results for the inhibition at 1 µM in assay [2], in assay [3] and in assay [4] were 3%, 89% and 45%, respectively.
For `C/C(=C\n1c2c(c3cc(C)ccc31)C1CCN(C2)C1)c1ccc(F)cc1` (stereo not drawn) [Compound 22], the inhibition at 1 µM in assay [1] (1 μM) was 95%; in assay [2] it was 21%; in assay [3] it was 96%; in assay [4] it was 52%. Also, the “Percent Inhibition … (1 μM ligand conc.) D2L” value in assay [2] is recorded as 25%. Also, the “Percentage Inhibition” value in assay [4] was determined as 58%.
For `COc1ccc(/C(C)=C/n2c3c(c4cc(C)ccc42)C2CCN(C3)C2)cc1` (stereo not drawn) [Compound 45], in assay [1], the inhibition at 0.1 µM amounted to 15%. Besides, the values for the inhibition at 1 µM in assay [2], in assay [3] and in assay [4] were -2%, 98% and 26%, respectively.
Turning to `C/C(=C\n1c2c(c3cc(C)ccc31)C1CCN(C2)C1)c1ccc(Cl)cc1` (stereo not drawn) [Compound 32], the inhibition at 0.1 µM in assay [1] was determined as 56%. In addition, the inhibition at 1 µM is 98% in assay [1] (1 μM), -12% in assay [2], 92% in assay [3] and 85% in assay [4].
In the case of `Cc1ccc2c(c1)c1c(n2CC(=O)NC2CCCCC2)CN2CCC1C2` (stereo not drawn) [Compound 23], the inhibition at 1 µM in assay [1] (1 μM) was -6%; in assay [2], 5%; in assay [3], 11%; in assay [4], 13%.
Take `Cc1ccc(C(O)Cn2c3c(c4cc(C)ccc42)C2CCN(C3)C2)cc1` (stereo not drawn) [Compound 5]: the inhibition at 1 µM in assay [1] (1 μM) amounted to 78%; in assay [2], 6%; in assay [3] it was 53%; in assay [4], 48%.
Regarding `Cc1ccc2c(c1)c1c(n2CC(C)(O)c2ccc(Cl)cc2Cl)CN2CCC1C2` (stereo not drawn) [Compound 14], the inhibition at 1 µM in assay [1] (1 μM) turned out to be 68%; in assay [2], 11%; in assay [3], 87%; in assay [4], 37%.
As to `C/C(=C\n1c2c(c3cc(C)ccc31)C1CCN(C2)C1)c1cccnc1` (stereo not drawn) [Compound 42], the inhibition at 1 µM in assay [2] is -10%; in assay [3], 64%; in assay [4] it was 20%.
Regarding `C/C(=C/n1c2c(c3cc(C)ccc31)C1CCN(C2)C1)c1ccccc1F` (stereo not drawn) [Compound 37], the values for the inhibition at 1 µM in assay [2], in assay [3] and in assay [4] were 5%, 94% and 78%, respectively.
In the same order, the values of `C/C(=C\n1c2c(c3cc(C)ccc31)C1CCN(C2)C1)c1ccc(Cl)c(Cl)c1` (stereo not drawn) [Compound 40] are 6%, 89% and 57%.
